Test results from US20250283017A1, “CLEANING COMPOSITIONS WITH ALKYLATED AMINO ACID SURFACTANTS HAVING ANTIMICROBIAL PROPERTIES” (THE CLOROX COMPANY, priority 2024, published 2025).

Tests used:
Staphylococcus aureus = test: GST (germicidal spray test) AOAC 961.02 micro-efficacy of cleaning compositions; type: cell-based; settings: 0.3 wt % alkylated amino acid, balance water, pH about 7, contact time 7 minutes; for GST efficacy in Cleaning Composition 1: 1 wt % lauryl amine oxide, 0.5 wt % butyl levulinate; for GST efficacy in Cleaning Composition 3: 1 wt % alkyl polyglucoside
Procedure: A number of tests were conducted for Cleaning Compositions 1-3 including different alkylated amino acids as set forth in Tables 1 and 2 as described herein. Tests were conducted using GST (germicidal spray test) testing method AOAC 961.02 for micro-efficacy (i.e., ability to kill bacteria) against Staphylococcus aureus. The contact time in the test method was 7 minutes, and the neutralizer utilized was Letheen Broth+0.07% Lecithin+0.5% Tween 80.

[1] = Stability of alkylated amino acid in cleaning composition 1 by HPLC-UV peak area vs t=0; type: physicochemical; settings: HPLC-UV peak area relative to t=0; for % at t = 4 w (70° F.): 4 weeks; for % at t = 4 w (70° F.) / % at t = 8 w (70° F.): 70° F. (21° C.); for % at t = 8 w (70° F.) / % at t = 8 w (100° F.): 8 weeks; for % at t = 8 w (100° F.): 100° F. (38° C.)
Procedure: The cleaning compositions were prepared using the formulation previously described herein as cleaning composition 1, where each tested cleaning composition was comprised of the following: 0.3 wt % alkylated amino acid, 1 wt % surfactant (lauryl amine oxide), 0.5 wt % fragrance (butyl levulinate), and balance water (about 98.2 wt % water).
The stability tests were tested for amino acid stability at different temperatures, 70° F. (21° C.) and 100° F. (38° C.), over the following periods of time: 4 weeks (4w) and 8 weeks (8w). The samples tested were subjected to HPLC-UV analysis, and the peak areas of the plotted data corresponding to the alkylated amino acids in the samples at 4w and 8w were compared with the reference (sample at t=0) to obtain a percentage value (based upon measured area at different times divided by measured area of reference, t=0).
Percentage values of 70% or greater indicate adequate stability of the alkylated amino acids within the cleaning compositions over the 4 and 8 week time periods and at the given temperatures, where increasing percentage values (e.g., above 85%, 90% or even at or greater than 100%) indicate very stable cleaning compositions with little or no degradation of the alkylated amino acids within the compositions.

SMILES | % at t = 4 w (70° F.) [1] [%] | % at t = 8 w (70° F.) [1] [%] | % at t = 8 w (100° F.) [1] [%] | GST efficacy in Cleaning Composition 1 (Staphylococcus aureus) [%] | GST efficacy in Cleaning Composition 2 (Staphylococcus aureus) [%] | GST efficacy in Cleaning Composition 3 (Staphylococcus aureus) [%]
CCCCCCCCCCCC(=O)NC(CCCNC(=N)N)C(=O)OCC (stereo not shown) [Example 1] | 80 | 71 | 27 | >99.999 | >99.999 | 
CCCCCCCCCCCCNC(CCCNC(=N)N)C(=O)O (stereo not shown) [Example 2] | 100 | 100 | 100 | >99.999 | >99.999 | 
CCCCCCCCCCCCNC(=O)C(N)CCCNC(=N)N (stereo not shown) [Example 4] | 106 | 112 | 81 | >99.999 | >99.999 | 
CCCCCCCCCCCCNC(CCCNC(=N)N)C(=O)OCC (stereo not shown) [Example 5] |  |  |  | >99.999 | >99.999 | 
CCCCCCCCCCCC(=O)NC(CCCCN)C(=O)OCC (stereo not shown) [Example 16] | 88 | 79 | 37 | >99.999 | >99.999 | 
CCCCCCCCCCCCNC(CCCCN)C(=O)O (stereo not shown) [Example 17] | 90 | 102 | 102 | >99.999 | >99.999 | 
CCCCCCCCCCCC(=O)NCCCCC(N)C(=O)OCC (stereo not shown) [Example 21] | 13 | 4 | 0 | >99.999 | >99.999 | 
CCCCCCCCCCCCNCCCCC(N)C(=O)O (stereo not shown) [Example 22] | 100 | 150 | 146 | >99.999 | >99.999 | 
CCCCCCCCCCCCNCC(=O)OCC [Example 60] | 8 | 0 | 0 | >99.999 |  | 
CCCCCCCCCCCCOC(=O)CN [Example 61] | 0 | 0 | 0 | >99.999 |  | >99.8
CCCCCCCCCCCCNC(=O)CN [Example 62] | 90 | 87 | 59 | >99.999 |  | >99.999
CCCCCCCCCCCCNC(CC(C)C)C(=O)OCC (stereo not shown) [Example 80] | 93 | 85 | 89 | 99.99 | 99.4 | 
CCCCCCCCCCCCOC(=O)C(N)CC(C)C (stereo not shown) [Example 81] | 64 | 36 | 5 | >99.999 | 95.3 | >99.8
CCCCCCCCCCCCNC(=O)C(C)CC(C)C (stereo not shown) [Example 82] | 90 | 100 | 93 | >99.999 |  | >99.999
CCCCCCCCCCCCNC(Cc1ccc(O)cc1)C(=O)OCC (stereo not shown) [Example 92] | 99 | 59 | 57 | 99.99 |  | 

More lines, main results first:

% at t = 4 w (70° F.) [1] [%] | % at t = 8 w (70° F.) [1] [%] | % at t = 8 w (100° F.) [1] [%] | SMILES | GST efficacy in Cleaning Composition 1 (Staphylococcus aureus) [%] | GST efficacy in Cleaning Composition 2 (Staphylococcus aureus) [%] | GST efficacy in Cleaning Composition 3 (Staphylococcus aureus) [%]
97 | 89 | 62 | CCCCCCCCCCCCNC(=O)C(N)CCCCN (stereo not shown) [Example 20] | >99.999 | >99.999 | 
93 | 91 | 74 | CCCCCCCCCCCCNC(Cc1ccccc1)C(=O)OCC (stereo not shown) [Example 88] | 99.999 |  | 
82 | 63 | 12 | CCCCCCCCCCCCOC(=O)C(N)Cc1ccccc1 (stereo not shown) [Example 89] | 99.999 | 99.5 | 99.6
104 | 101 | 96 | CCCCCCCCCCCCNC(=O)C(N)Cc1ccccc1 (stereo not shown) [Example 90] | >99.999 |  | >99.999
75 | 56 | 8 | CCCCCCCCCCCCOC(=O)C(N)Cc1ccc(O)cc1 (stereo not shown) [Example 93] | >99.999 | 99.9 | 99.4
98 | 94 | 86 | CCCCCCCCCCCCNC(=O)C(N)Cc1ccc(O)cc1 (stereo not shown) [Example 94] | >99.999 |  | >99.999
94 | 87 | 35 | CCCCCCCCCCCCNC(Cc1c[nH]c2ccccc12)C(=O)OCC (stereo not shown) [Example 96] | 99.999 |  | 
92 | 73 | 6 | CCCCCCCCCCCCOC(=O)C(N)Cc1c[nH]c2ccccc12 (stereo not shown) [Example 97] | >99.999 |  | 
118 | 135 | 121 | CCCCCCCCCCCCNC(=O)C(N)Cc1c[nH]c2ccccc12 (stereo not shown) [Example 98] | >99.999 |  | 99.4
